The results in this text go back to patent publication US5798373A, “Tri-substituted phenyl derivatives useful as PDE IV inhibitors” (Celltech Therapeutics, Limited, priority 1995, dated 1998).

For data set [1], the target named is T1, Recombinant Human PDE IVA (Homo sapiens, UniProt P27815).
T1 construct: made in house; host or cells: yeast (inducible vector)
As to the kind of experiment: Isolated recombinant human PDE IVA enzyme inhibition. Type of data set: biochemical. Conditions: 0.1 μM [^3 H]-cAMP, pH 7.5, 30° C.
Method: Isolated Recombinant Human PDE IVA Enzyme
The enzymes were purified to isoenzyme homogeneity using standard chromatographic techniques.
Phosphodiesterase activity was assayed as follows. The reaction was conducted in 150 μl of standard mixture containing (final concentrations): 50 mM 2-[[tris(hydroxymethyl)methyl]amino]-1-ethanesulphonic acid (TES) --NaOH buffer (pH 7.5), 10 mM MgCl2, 0.1 μM [^3 H]-cAMP and vehicle or various concentrations of the test compounds. The reaction was initiated by addition of enzyme and conducted at 30° C. for between 5 to 30 min. The reaction was terminated by addition of 50 μl 2% trifluoroacetic acid containing [^14 C]-5'AMP for determining recovery of the product. An aliquot of the sample was then applied to a column of neutral alumina and the [^3 H]-cAMP eluted with 10 ml 0.1 TES-NaOH buffer (pH8). The [^3 H]-5'-AMP product was eluted with 2 ml 2M NaOH into a scintillation vial containing 10 ml of scintillation cocktail. Recovery of [^3 H]-5'AMP was determined using the [^14 C]-5'AMP and all assays were conducted in the linear range of the reaction. Results were expressed as IC50 values.

Data set [2] is described as follows: Rat hepatocyte metabolism (metabolic stability). Type of data set: in vitro ADME. Conditions: rat hepatocytes, after 3 h, mass spectroscopy; read-out: percentage of compound remaining. As to the method: (§1) 2. Rat Hepatocyte Metabolism
(§2) The quantity of compound remaining after a fixed period of time was then determined using mass spectroscopy.
(§3) Thus in one such test the compound of Example 1 was compared with a related compound particularly described in International Patent Specification No. WO94/14742 in which the 4-fluorobenzylurea group is replaced by a hydrogen atom (i.e. (L^1)n Ar' above is a hydrogen atom). After 3 h the percentage of each compound remaining was: […]

For a further data set, the system named is rat hepatocytes. As to the kind of experiment: Rat hepatocyte metabolism (metabolic stability). Conditions: after 3 h. Type of data set: in vitro ADME. As to the method: as §1, §2, §3

Where a name gives a salt, the structure may show the parent alone.

T1 sequence (P27815 whole entry): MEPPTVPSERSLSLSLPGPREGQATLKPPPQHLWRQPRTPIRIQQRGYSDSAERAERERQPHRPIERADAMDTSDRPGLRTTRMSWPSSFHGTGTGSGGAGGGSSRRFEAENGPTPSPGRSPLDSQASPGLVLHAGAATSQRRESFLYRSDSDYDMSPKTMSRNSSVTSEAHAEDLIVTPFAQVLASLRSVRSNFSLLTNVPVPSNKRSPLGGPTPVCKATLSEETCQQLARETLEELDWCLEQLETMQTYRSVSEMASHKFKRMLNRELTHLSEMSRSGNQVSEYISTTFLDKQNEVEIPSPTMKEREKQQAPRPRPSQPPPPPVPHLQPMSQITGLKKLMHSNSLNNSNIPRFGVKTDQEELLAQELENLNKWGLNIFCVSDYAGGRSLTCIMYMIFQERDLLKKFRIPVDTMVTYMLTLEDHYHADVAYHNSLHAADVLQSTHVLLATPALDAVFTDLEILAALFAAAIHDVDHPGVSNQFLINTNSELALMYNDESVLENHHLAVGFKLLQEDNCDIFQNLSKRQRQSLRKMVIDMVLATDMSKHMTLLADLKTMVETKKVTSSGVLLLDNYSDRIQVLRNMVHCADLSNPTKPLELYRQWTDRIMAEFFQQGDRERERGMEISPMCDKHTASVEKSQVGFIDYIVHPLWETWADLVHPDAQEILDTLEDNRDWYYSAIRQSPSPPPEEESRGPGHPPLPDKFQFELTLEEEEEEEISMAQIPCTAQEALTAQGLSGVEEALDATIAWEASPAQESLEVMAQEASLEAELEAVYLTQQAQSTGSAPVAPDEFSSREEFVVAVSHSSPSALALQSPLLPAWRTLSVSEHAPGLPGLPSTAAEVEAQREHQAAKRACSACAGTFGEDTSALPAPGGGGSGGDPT

In the case of `COc1ccc([C@H](Cc2ccncc2)c2ccc(NC(=O)NCc3ccc(F)cc3)cc2)cc1OC1CCCC1` [Example 1, (R)-N-[4-{1-(3-cyclopentyloxy-4-methoxyphenyl)-2-(4-pyridyl)ethyl}-phenyl]-N'-(4-fluorobenzyl) urea], the 50% inhibitory concentration (IC50) in data set [1] is 23 nM. Besides, the fraction remaining at 3 h in data set [2] is more than 80%. The “percentage of compound remaining” value in the data set with rat hepatocytes (mass spectroscopy, listed as compound of the invention, 180 min) is “over 80%”.

As to `COc1ccc([C@H](Cc2ccncc2)c2ccc(NS(=O)(=O)Cc3ccccc3)cc2)cc1OC1CCCC1` [Example 2, (R)-4-{2-(3-cyclopentyloxy-4-methoxyphenyl)-2-[4-(benzylsulphonylamino)phenyl]ethyl}pyridine hydrochloride], the concentration for half-maximal inhibition (IC50) in data set [1] turned out to be 7.5 nM.

Take `COc1ccc([C@H](Cc2ccncc2)c2ccccc2)cc1OC1CCCC1` [WO94/14732 comparison compound, reference compound]: the fraction remaining at 3 h in data set [2] came to 6%. Besides, in the data set with rat hepatocytes, the “extent of metabolism (in words)” value is “extensively metabolised”.
